Data published in PubChem BioAssay (NCI).
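At the GI50, growth is halved. Definition used: TGI = concentration required for complete inhibition of growth.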

Legend:
Assay in all cases: inhibition of tumour cell growth, NCI panel, 384-well format
[1] = test system: SNB-75 CNS
[2] = test system: RXF 393 renal
[3] = test system: HOP-62 NSCLC
[4] = test system: NCI/ADR-RES ovarian
[5] = test system: K-562 leukemia
[6] = test system: SF-295 CNS
[7] = test system: HCT-15 colon
[8] = test system: SF-268 CNS
[9] = test system: CCRF-CEM leukemia
[10] = test system: HL-60(TB) leukemia
[11] = test system: TK-10 renal
[12] = test system: MALME-3M melanoma
[13] = test system: OVCAR-3 ovarian
[14] = test system: OVCAR-5 ovarian
[15] = test system: PC-3 prostate
[16] = test system: NCI-H322M lung
[17] = test system: UO-31 renal
[18] = test system: MDA-MB-231 breast
[19] = test system: HCC-2998 colon
[20] = test system: ACHN renal
[21] = test system: HS 578T breast
[22] = test system: BT-549 breast
[23] = test system: MDA-MB-435 melanoma
[24] = test system: OVCAR-4 ovarian
[25] = test system: A498 renal
[26] = test system: SK-MEL-2 melanoma
[27] = test system: SK-MEL-28 melanoma
[28] = test system: NCI-H460 NSCLC
[29] = test system: HT29 colon
[30] = test system: SK-MEL-5 melanoma
[31] = test system: NCI-H23 lung
[32] = test system: HOP-92 NSCLC
[33] = test system: SN12C renal
[34] = test system: MOLT-4 leukemia
[35] = test system: NCI-H226 lung
[36] = test system: RPMI-8226 leukemia
[37] = test system: OVCAR-8 ovarian
[38] = test system: T-47D breast
[39] = test system: LOX IMVI melanoma
[40] = test system: A549 NSCLC
[41] = test system: DU-145 prostate
[42] = test system: SF-539 CNS
[43] = test system: CAKI-1 renal
[44] = test system: 786-0 renal
[45] = test system: SR leukemia
[46] = test system: MDA-MB-468 breast
[47] = test system: COLO 205 colon

With `Cc1[nH]c2ccccc2c1CCNCc1ccc(/C=C/C(=O)NO)cc1` the GI50 [1] was less than 0.0124 µM, the TGI [1] was 0.0459 µM and the GI50 [2] was less than 0.0117 µM. It also gave a TGI [2] of 0.0186 µM, a GI50 [3] of 0.0131 µM and a TGI [3] of 0.0644 µM. It also gave a GI50 [4] of 0.039 µM, a TGI [4] of 0.181 µM and a GI50 [5] of less than 0.01 µM. The TGI [5] was 0.0148 µM, the GI50 [6] was 0.0185 µM and the TGI [6] was 0.0413 µM. For the same molecule, the GI50 [7] was 0.0515 µM, the TGI [7] was 0.257 µM and the GI50 [8] was 0.0152 µM. It also gave a TGI [8] of 0.0391 µM, a GI50 [9] of less than 0.01 µM and a TGI [9] of less than 0.01 µM. It also gave a GI50 [10] of less than 0.01 µM, a TGI [10] of less than 0.01 µM and a GI50 [11] of 0.0173 µM. The TGI [11] was 0.0552 µM, the GI50 [12] was less than 0.01 µM and the TGI [12] was 0.0163 µM. The GI50 [13] was 0.0167 µM, the TGI [13] was 0.0437 µM and the GI50 [14] was 0.0101 µM. For the same molecule, the TGI [14] was 0.0337 µM, the GI50 [15] was 0.0142 µM and the TGI [15] was 0.0399 µM. For the same molecule, the GI50 [16] was 0.0139 µM, the TGI [16] was 0.0538 µM and the GI50 [17] was 0.0318 µM. For the same molecule, the TGI [17] was 0.128 µM, the GI50 [18] was 0.0121 µM and the TGI [18] was 0.0305 µM. It also gave a GI50 [19] of 0.0151 µM, a TGI [19] of 0.0337 µM and a GI50 [20] of 0.0203 µM. For the same molecule, the TGI [20] was 0.0538 µM, the GI50 [21] was 0.0115 µM and the TGI [21] was 0.0243 µM. It also gave a GI50 [22] of 0.0434 µM, a TGI [22] of 0.123 µM and a GI50 [23] of 0.0181 µM. For the same molecule, the TGI [23] was 0.0434 µM, the GI50 [24] was 0.0275 µM and the TGI [24] was 0.0609 µM. The GI50 [25] was 0.0166 µM, the TGI [25] was 0.036 µM and the GI50 [26] was less than 0.01 µM. For the same molecule, the TGI [26] was less than 0.01 µM, the GI50 [27] was 0.0153 µM and the TGI [27] was 0.038 µM. The GI50 [28] was 0.0125 µM, the TGI [28] was 0.0511 µM and the GI50 [29] was 0.0125 µM. The TGI [29] was 0.0285 µM, the GI50 [30] was less than 0.01 µM and the TGI [30] was 0.014 µM. The GI50 [31] was 0.0139 µM, the TGI [31] was 0.0411 µM and the GI50 [32] was 0.0133 µM. The TGI [32] was 0.0325 µM, the GI50 [33] was 0.0186 µM and the TGI [33] was 0.0411 µM. It also gave a GI50 [34] of less than 0.01 µM, a TGI [34] of less than 0.01 µM and a GI50 [35] of 0.0359 µM. For the same molecule, the TGI [35] was 0.133 µM, the GI50 [36] was less than 0.01 µM and the TGI [36] was less than 0.01 µM. The GI50 [37] was less than 0.01 µM, the TGI [37] was 0.0286 µM and the GI50 [38] was less than 0.0109 µM. For the same molecule, the TGI [38] was 0.0214 µM, the GI50 [39] was 0.0131 µM and the TGI [39] was 0.0262 µM. The GI50 [40] was 0.0156 µM, the TGI [40] was 0.0422 µM and the GI50 [41] was less than 0.01 µM. It also gave a TGI [41] of 0.0179 µM, a GI50 [42] of 0.0186 µM and a TGI [42] of 0.086 µM. It also gave a GI50 [43] of 0.0131 µM, a TGI [43] of 0.0286 µM and a GI50 [44] of 0.0214 µM. It also gave a TGI [44] of 0.114 µM, a GI50 [45] of less than 0.01 µM and a TGI [45] of less than 0.01 µM. For the same molecule, the GI50 [46] was less than 0.01 µM, the TGI [46] was 0.0179 µM and the GI50 [47] was 0.0123 µM. The TGI [47] was 0.0227 µM.
In the case of `COCCNc1cc(NC(=O)N2CCCc3cc(CN4CCN(C)CC4=O)c(C=O)nc32)ncc1C#N`, the GI50 [1] was greater than 100 µM, the TGI [1] was greater than 100 µM and the GI50 [2] was greater than 100 µM. It also gave a TGI [2] greater than 100 µM, a GI50 [3] greater than 100 µM and a TGI [3] greater than 100 µM. The GI50 [4] was greater than 100 µM, the TGI [4] was greater than 100 µM and the GI50 [5] was 22.2 µM. It also gave a TGI [5] greater than 100 µM, a GI50 [6] greater than 100 µM and a TGI [6] greater than 100 µM. The GI50 [7] was greater than 100 µM, the TGI [7] was greater than 100 µM and the GI50 [8] was greater than 100 µM. The TGI [8] was greater than 100 µM, the GI50 [9] was 27 µM and the TGI [9] was greater than 100 µM. It also gave a GI50 [10] of 99.6 µM, a TGI [10] greater than 100 µM and a GI50 [11] greater than 84.9 µM. It also gave a TGI [11] greater than 100 µM, a GI50 [12] greater than 100 µM and a TGI [12] greater than 100 µM. For the same molecule, the GI50 [13] was greater than 69.3 µM, the TGI [13] was greater than 100 µM and the GI50 [14] was greater than 100 µM. The TGI [14] was greater than 100 µM, the GI50 [15] was greater than 100 µM and the TGI [15] was greater than 100 µM. It also gave a GI50 [16] greater than 100 µM, a TGI [16] greater than 100 µM and a GI50 [17] greater than 100 µM. It also gave a TGI [17] greater than 100 µM, a GI50 [18] greater than 100 µM and a TGI [18] greater than 100 µM. The GI50 [19] was greater than 100 µM, the TGI [19] was greater than 100 µM and the GI50 [20] was greater than 100 µM. For the same molecule, the TGI [20] was greater than 100 µM, the GI50 [21] was greater than 100 µM and the TGI [21] was greater than 100 µM. For the same molecule, the GI50 [22] was greater than 100 µM, the TGI [22] was greater than 100 µM and the GI50 [23] was greater than 100 µM. It also gave a TGI [23] greater than 100 µM, a GI50 [24] greater than 100 µM and a TGI [24] greater than 100 µM. It also gave a GI50 [25] greater than 100 µM, a TGI [25] greater than 100 µM and a GI50 [26] greater than 100 µM. It also gave a TGI [26] greater than 100 µM, a GI50 [27] greater than 100 µM and a TGI [27] greater than 100 µM. It also gave a GI50 [28] greater than 100 µM, a TGI [28] greater than 100 µM and a GI50 [29] greater than 100 µM. The TGI [29] was greater than 100 µM, the GI50 [30] was greater than 100 µM and the TGI [30] was greater than 100 µM. It also gave a GI50 [31] greater than 100 µM, a TGI [31] greater than 100 µM and a TGI [32] greater than 100 µM. It also gave a GI50 [33] greater than 100 µM, a TGI [33] greater than 100 µM and a GI50 [34] of 6.8 µM. For the same molecule, the TGI [34] was greater than 100 µM, the GI50 [35] was greater than 100 µM and the TGI [35] was greater than 100 µM. For the same molecule, the GI50 [36] was greater than 21.1 µM, the TGI [36] was greater than 43.9 µM and the GI50 [37] was greater than 100 µM. It also gave a TGI [37] greater than 100 µM, a GI50 [38] greater than 77.7 µM and a TGI [38] greater than 100 µM. The GI50 [39] was greater than 100 µM, the TGI [39] was greater than 100 µM and the GI50 [40] was greater than 100 µM. For the same molecule, the TGI [40] was greater than 100 µM, the GI50 [41] was greater than 100 µM and the TGI [41] was greater than 100 µM. The GI50 [42] was greater than 100 µM, the TGI [42] was greater than 100 µM and the GI50 [43] was greater than 100 µM. For the same molecule, the TGI [43] was greater than 100 µM, the GI50 [44] was greater than 100 µM and the TGI [44] was greater than 100 µM. It also gave a GI50 [45] of 3.31 µM, a TGI [45] of 10.8 µM and a GI50 [46] of 4.83 µM. It also gave a TGI [46] greater than 100 µM, a GI50 [47] greater than 100 µM and a TGI [47] greater than 100 µM.
